Here are results for 1 compound from US20090233917A1, “Stroke recovery” (priority 2006, published 2009).

The test system of the experiment is embolic middle cerebral artery occlusion (MCAO) in rats. Put plainly: Functional recovery following embolic MCAO in rats (Example 13). The experiment is classed as in vivo, Wistar rats. To be noted: for foot fault test, compared to EPO treatment group: 10 h treatment group. The source says:
The purpose of this study was to evaluate the efficacy of arimoclomol in enhancing neurological recovery in a model of embolic middle cerebral artery occlusion (MCAO) in rats (Zhang R L et al. Brain Research 766:83-92, 1997). The embolic MCAO model emulates the damage caused by an embolic stroke which is generally the result of ischemia associated damage or diseases. The embolic MCAO model also closely models the types of damage caused by a stroke because the occlusion is not permanent. Moreover, the embolus often undergoes spontaneous clot lysis and reperfusion within 24-48 hours post-stroke, which is similar to a subset of human stroke. Damage from a stroke can be brought about in two ways. […] Second, the resulting pressure from the initial surge in blood volume once the occlusion is cleared can also result in further neurological damage and damage to the effected blood vessel. This embolic stroke model provides guidance for the neurological recovery resulting from each of these phenomena.
Sixty male Wistar rats between 8-12 weeks of age were operated on to isolate the external carotid artery (ECA) and the internal carotid artery (ICA). A single clot was introduced into the ECA lumen through a PE-50 catheter (0.3 mm outer diameter) attached to a 100 μL Hamilton syringe filled with 0.9% saline via a small puncture. A 16 mm length of the PE-50 catheter was advanced from the ECA into the lumen of the ICA. Subsequently, the clot was injected into the ICA with 2-3 μL of 0.9% saline. The catheter was withdrawn and the right ECA ligated.
The rats were then randomly divided into 6 groups of 10 animals each. To the control group, phosphate buffered saline (PBS) was administered, p.o., starting at six hours after embolic stroke for 28 consecutive days. To the second group, Erythropoitein (EPO) was administered, i.p., starting at 24 hours after embolic stroke for 7 consecutive days (41.7 μg/kg/d). To the third group, arimoclomol was administered daily p.o. (200 mg/kg/d), starting 6 hours after embolic stroke for 28 consecutive days. To the fourth group, arimoclomol was administered daily p.o. (200 mg/kg/d), starting 10 hours after embolic stroke for 28 consecutive days. To the fifth group, arimoclomol was administered p.o. (200 mg/kg/d), starting 24 hours after embolic stroke for 28 consecutive days. To the sixth group, arimoclomol was administered p.o. (200 mg/kg/d), starting 48 hours after embolic stroke for 28 consecutive days.
Animals were evaluated at 1, 3, 7, 14, 21, and 28 days after initiation of embolic stroke by a modified neurological severity score (mNSS) and adhesive-removal and foot fault tests. These tests are widely accepted as standard tests indicative of functional recovery after a stroke. (Chen et al., Ann Neurol 53: 743-751, 2003; Wang et al., Stroke 35: 1732-1737, 2004; Zhang et al, Circulation 3486-3494, 2005).
For the modified neurological severity score (mNSS), the severity of injury was graded on a scale of 0 to 18. This score was determined via the evaluation of a variety of motor tests, sensory tests, balance beam tests and reflex tests as illustrated in Table II below. To determine the score resulting from these tests, one point was awarded for the inability to perform any of the tests or for the lack of a tested reflex. Accordingly, the higher the score, the more severe the injury. (Chen et al., Ann Neurol 53: 743-751, 2003; Wang et al., Stroke 35: 1732-1737, 2004; Zhang et al, Circulation 3486-3494, 2005).
For the adhesive removal test, the rats are trained prior to embolic stroke to remove strips of packing tape (5 cm). The training period constitutes of 3 sessions. Each session consists of 6 bilateral stimulation trials conducted over 2 days wherein the 5 cm strips of packing tape were placed firmly around both wrists of the animal so that they covered the hairless part of the forepaw. […]

[1] abbreviates: 6 h, 10 h, and 24 h treatment groups, on and after the 14-day time point.

Take `[O-][n+]1cccc(/C(Cl)=N/OC[C@H](O)CN2CCCCC2)c1` [arimoclomol, N-[2-hydroxy-3-(1-piperidinyl)propoxy]-pyridine-1-oxide-3-carboximidoyl chloride]: the “adhesive-removal test, recovery compared to control group” value (200 mg/kg/d p.o., start 6 h, 10 h, 24 h and 48 h after embolic stroke, after the 14 day time point) is listed as “significantly superior”. In addition, under setting [1], the “foot fault test, recovery compared to control groups” value was “significantly superior” and the “mNSS test, recovery compared to control groups” value is listed as “significantly greater”. Besides, under “6 h and 10 h treatment groups, after 28 days of treatment”, the “infarct volume compared to control groups” value is reported as “significantly lower percentage of infarct volume”. The “foot fault test, compared to EPO treatment group” value (21-day time point) is recorded as “significantly superior”. For the same compound, the “foot fault test, compared to EPO treatment group” value (28-day time point) is reported as “slightly superior”. Besides, under “day 28, each time group (6, 10, 24, 48 h)”, the “adhesive-removal test, improvement percentage compared to control” value is recorded as “greater than 25%”.
